Data taken from paper PMC12775434, “Ultra-large virtual screening unveils potent agonists of the neuromodulatory orphan receptor GPR139” (Nature Communications, 2025).
Where “and” joins values, the source holds several entries; their conditions need not be identical. Equal values may be shown once.

Key:
Type in all cases: cell-based
GPR139 [1] = biological target: T1, GPR139 (Homo sapiens, UniProt Q6DWJ6); assay: Ca2+ mobilization assay, antagonist mode (EC80 800 nM Lundbeck Cmp 1a after 20 min preincubation), GPR139-CHOk1; conditions: individual replicates (Supplementary Figure 4)
T1 sequence (Q6DWJ6 1-353): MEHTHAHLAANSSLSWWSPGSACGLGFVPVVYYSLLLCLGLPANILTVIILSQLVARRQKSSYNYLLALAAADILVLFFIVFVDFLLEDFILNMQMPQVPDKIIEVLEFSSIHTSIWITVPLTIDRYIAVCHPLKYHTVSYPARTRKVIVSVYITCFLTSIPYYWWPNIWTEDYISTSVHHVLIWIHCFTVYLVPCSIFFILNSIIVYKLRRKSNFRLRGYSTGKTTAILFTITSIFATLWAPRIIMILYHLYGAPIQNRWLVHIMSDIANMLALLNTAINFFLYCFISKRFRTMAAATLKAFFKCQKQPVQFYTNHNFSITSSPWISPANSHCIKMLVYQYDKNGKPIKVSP
Procedure, shortened: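 Fluo-4-loaded GPR139-CHOk1 cells in HEPES-buffered HBSS (pH 7.4, 2.5 mM probenecid) given test compounds at 10 µM, then after 20 min challenged with 800 nM Lundbeck Cmp 1a (EC80). Calcium fluorescence read at 37 °C, 485/525 nm.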

GPR139 [2] = biological target: T1, GPR139; assay: Ca2+ mobilization assay, agonist mode, stable GPR139-CHOk1 cell line; conditions: for EC50 / Emax: Supplementary Table 2, mean ± SEM; for EC50: read-out: pEC50 Ca2+ (converted); for Emax: normalized to Lundbeck Cmp 1a, read-out: Emax (%) Ca2+
Procedure, shortened: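 Agonist activity of compounds is assessed in stably transfected CHO-K1 cells using the calcium dye Fluo-4 at 37 °C in HEPES-buffered HBSS (pH 7.4). Efficacy is expressed relative to the reference agonist Lundbeck Cmp 1a, set as 100%.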

[3] = biological target: T2, human muscarinic acetylcholine M1 receptor (M1R) (Homo sapiens, UniProt P11229); assay: Ca2+ mobilization counter-screen in M1R-CHOk1 cells; conditions: individual replicates (Supplementary Figure 5)
T2 sequence (P11229 1-460): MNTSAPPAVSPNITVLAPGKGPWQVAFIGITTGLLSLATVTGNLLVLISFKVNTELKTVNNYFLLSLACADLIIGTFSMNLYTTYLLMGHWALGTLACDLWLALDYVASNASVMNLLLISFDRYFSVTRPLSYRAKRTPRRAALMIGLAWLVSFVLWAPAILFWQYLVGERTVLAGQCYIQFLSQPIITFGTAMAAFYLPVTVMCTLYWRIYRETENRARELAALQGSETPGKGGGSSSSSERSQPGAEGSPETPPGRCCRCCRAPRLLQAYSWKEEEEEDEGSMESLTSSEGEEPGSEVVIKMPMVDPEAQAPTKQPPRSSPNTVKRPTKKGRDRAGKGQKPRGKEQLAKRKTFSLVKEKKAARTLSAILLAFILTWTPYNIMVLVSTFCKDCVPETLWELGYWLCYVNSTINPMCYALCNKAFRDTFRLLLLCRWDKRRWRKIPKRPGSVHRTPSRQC
Procedure: Primary screening and pharmacological characterization of compounds were performed using a CHO-K1 cell line that stably expresses human GPR139 (GPR139-CHOk1). The GPR139-CHOk1 cell line was kindly provided by H. Lundbeck A/S, Denmark[24]. GPR139-CHOk1 cells were grown in Ham’s F-12 Kaighn’s Modification Medium (ThermoFisher #21127030) supplemented with 10% dialyzed fetal bovine serum (US origin, ThermoFisher #26400044), 100 units/mL Penicillin-Streptomycin (ThermoFisher #15140122), and 1 mg/mL Geneticin (ThermoFisher #11811031). […] M1R-CHOk1 cells were purchased from The Missouri S&T cDNA Resource Center (#CEM100TN00). M1R-CHOk1 cells were grown in Ham’s F12 Medium (ThermoFisher #21765029) supplemented with 10% fetal bovine serum (Brazilian origin, ThermoFisher #10270106), 100 units/mL Penicillin-Streptomycin, and 0.25 mg/mL Geneticin. HEK293A cells transiently transfected with GPR139 were used for additional pharmacological assessment of signaling pathways activated by GPR139. HEK239A cells were generously provided by Dr. Asuka Inoue, Tohoku University, Japan. HEK293A cells were grown in Dulbecco’s Modified Eagle Medium (ThermoFisher #31966047) supplemented with 10% dialyzed fetal bovine serum and 100 units/mL Penicillin-Streptomycin. Cell lines were maintained at 37 °C in humidified incubator equilibrated with 5% CO2.
30,000 GPR139- or M1R-CHOk1 cells/well were seeded in black clear bottom tissue culture treated 96-well plates (Greiner #655090) and grown for 20–24 h. Cells were washed with HEPES buffer (Hank’s Balanced Salt Solution (HBBS) supplemented with 20 mM HEPES, 1 mM MgCl2, and 1 mM CaCl2; pH 7.4). Cells were loaded with 50 µL of 2 µM Fluo-4 AM dye (ThermoFisher #F14202) in HEPES buffer supplemented with 2.5 mM probenecid and 0.01% Pluronic F-68 (ThermoFisher #24040032) for 1 h at 37 °C. Cells were washed with HEPES buffer. 50 µL HEPES buffer supplemented with 2.5 mM probenecid was added, and the cells were incubated for 10 min at 37 °C before measurement. 50 µL test compounds diluted in HEPES buffer from DMSO stocks (final DMSO concentration of maximally 0.3%) were added automatically after baseline measurements. The intracellular calcium mobilization was measured on a FlexStation 3 Multimode Microplate Reader (Molecular Devices) at 37 °C with filters for excitation of 485 nm and emission of 525 nm.

[4] = Agonist mode, individual replicates (Supplementary Figure 4)
[5] = log [Compound] M = -4.5, individual replicate columns
[6] = log [Compound] M = -5.0, individual replicate columns
[7] = log [Compound] M = -5.5, individual replicate columns
[8] = log [Compound] M = -6.0, individual replicate columns
[9] = log [Compound] M = -6.5, individual replicate columns
[10] = log [Compound] M = -7.0, individual replicate columns
[11] = log [Compound] M = -7.5, individual replicate columns
[12] = log [Compound] M = -8.0, individual replicate columns
[13] = log [Compound] M = -8.5, individual replicate columns
[14] = log [Compound] M = -9.0, individual replicate columns

**Q.** What does the source list for Cc1csc(-c2nc(CC(=O)NC(C)c3ccccc3)no2)c1 (stereo not shown) [Compound 1.11, CC(C1=CC=CC=C1)NC(CC2=NOC(C3=CC(C)=CS3)=N2)=O]?
**A.** Ca2+ signal (% of Cmp 1a) (GPR139 [1]): 0 % of Cmp 1a and -3 % of Cmp 1a and -25 % of Cmp 1a; Ca2+ signal (% of Cmp 1a) (GPR139 [2]; [4]): 83 % of Cmp 1a and 63 % of Cmp 1a and 71 % of Cmp 1a; EC50 (GPR139 [2]): 0.2 µM; Emax (GPR139 [2]): 105 ± 10%; Ca2+ signal (% of Cmp 1a) (GPR139 [2]; [5]): 119 % of Cmp 1a and 103 % of Cmp 1a and 72 % of Cmp 1a and 99 % of Cmp 1a; Ca2+ signal (% of Cmp 1a) (GPR139 [2]; [6]): 117 % of Cmp 1a and 110 % of Cmp 1a and 94 % of Cmp 1a and 97 % of Cmp 1a; Ca2+ signal (% of Cmp 1a) (GPR139 [2]; [7]): 109 % of Cmp 1a and 87 % of Cmp 1a and 67 % of Cmp 1a and 96 % of Cmp 1a; Ca2+ signal (% of Cmp 1a) (GPR139 [2]; [8]): 94 % of Cmp 1a and 70 % of Cmp 1a and 59 % of Cmp 1a and 79 % of Cmp 1a; Ca2+ signal (% of Cmp 1a) (GPR139 [2]; [9]): 69 % of Cmp 1a and 58 % of Cmp 1a and 32 % of Cmp 1a and 65 % of Cmp 1a; Ca2+ signal (% of Cmp 1a) (GPR139 [2]; [10]): 58 % of Cmp 1a and 48 % of Cmp 1a and 20 % of Cmp 1a and 43 % of Cmp 1a; Ca2+ signal (% of Cmp 1a) (GPR139 [2]; [11]): 38 % of Cmp 1a and -18 % of Cmp 1a and -19 % of Cmp 1a and 30 % of Cmp 1a; Ca2+ signal (% of Cmp 1a) (GPR139 [2]; [12]): 31 % of Cmp 1a and 1.33 % of Cmp 1a and -4 % of Cmp 1a and 6.33 % of Cmp 1a; Ca2+ signal (% of Cmp 1a) (GPR139 [2]; [13]): 6 % of Cmp 1a and 1.67 % of Cmp 1a and 4.67 % of Cmp 1a and 3.33 % of Cmp 1a; Ca2+ signal (% of Cmp 1a) (GPR139 [2]; [14]): 10 % of Cmp 1a and 7 % of Cmp 1a and -2.67 % of Cmp 1a and 1.33 % of Cmp 1a; Ca2+ signal (% of Carbachol) [3]: -8 % of Carbachol and 27 % of Carbachol and -10 % of Carbachol

**Q.** With CCc1ccc(-c2nc(CC(=O)NC(C)c3ccccc3)no2)s1 (stereo not shown) [Compound 1.12, CCC1=CC=C(C2=NC(CC(NC(C3=CC=CC=C3)C)=O)=NO2)S1] as the molecule, how does the “Ca2+ signal (% of Cmp 1a)” value (GPR139 [1]) read?
**A.** 15 % of Cmp 1a and 8 % of Cmp 1a and -3.33 % of Cmp 1a

**Q.** And the “Ca2+ signal (% of Cmp 1a)” value (GPR139 [2]; [4])?
**A.** 86 % of Cmp 1a and 84 % of Cmp 1a and 95 % of Cmp 1a

**Q.** What about the “change in potency with larger substituents on the thiophene ring” value (GPR139 [2]; Ca2+ mobilization) of the same molecule?
**A.** three-fold reduction to a complete loss of activity

**Q.** And the EC50 (GPR139 [2])?
**A.** 0.398 µM

**Q.** And the Emax (GPR139 [2])?
**A.** 93 ± 4%

**Q.** What about the “Ca2+ signal (% of Cmp 1a)” value (GPR139 [2]; [5]) of the same molecule?
**A.** 90 % of Cmp 1a and 89 % of Cmp 1a and 81 % of Cmp 1a and 78 % of Cmp 1a

**Q.** What about the “Ca2+ signal (% of Cmp 1a)” value (GPR139 [2]; [6]) of the same molecule?
**A.** 105 % of Cmp 1a and 80 % of Cmp 1a and 63 % of Cmp 1a and 94 % of Cmp 1a

**Q.** And the “Ca2+ signal (% of Cmp 1a)” value (GPR139 [2]; [7])?
**A.** 111 % of Cmp 1a (2×) and 80 % of Cmp 1a and 55 % of Cmp 1a

**Q.** And the “Ca2+ signal (% of Cmp 1a)” value (GPR139 [2]; [8])?
**A.** 66 % of Cmp 1a and 61 % of Cmp 1a and 43 % of Cmp 1a and 78 % of Cmp 1a

**Q.** And the “Ca2+ signal (% of Cmp 1a)” value (GPR139 [2]; [9])?
**A.** 49 % of Cmp 1a and 48 % of Cmp 1a and 28 % of Cmp 1a and 56 % of Cmp 1a

**Q.** What about the “Ca2+ signal (% of Cmp 1a)” value (GPR139 [2]; [10]) of the same molecule?
**A.** 21 % of Cmp 1a and 33 % of Cmp 1a and 9 % of Cmp 1a and 38 % of Cmp 1a

**Q.** And the “Ca2+ signal (% of Cmp 1a)” value (GPR139 [2]; [11])?
**A.** 6 % of Cmp 1a and 10 % of Cmp 1a and 3.55 % of Cmp 1a and 24 % of Cmp 1a

**Q.** And the “Ca2+ signal (% of Cmp 1a)” value (GPR139 [2]; [12])?
**A.** -0.628 % of Cmp 1a and 0.281 % of Cmp 1a and 16 % of Cmp 1a and 5 % of Cmp 1a

**Q.** And the “Ca2+ signal (% of Cmp 1a)” value (GPR139 [2]; [13])?
**A.** -1.24 % of Cmp 1a and 1.81 % of Cmp 1a and 5 % of Cmp 1a and 9 % of Cmp 1a

**Q.** What about the “Ca2+ signal (% of Cmp 1a)” value (GPR139 [2]; [14]) of the same molecule?
**A.** 6.67 % of Cmp 1a and -5 % of Cmp 1a and 1.66 % of Cmp 1a and 6 % of Cmp 1a

**Q.** What about the “Ca2+ signal (% of Carbachol)” value [3] of the same molecule?
**A.** 8 % of Carbachol and 5.44 % of Carbachol and 4 % of Carbachol
